Patent US8907080B2, “Process for imparting water solubility or water dispersibility to hydrophobic cluster compound” (Daiso Co., Ltd., priority 2009, dated 2014)

How the values were obtained:
[1] = Solubilization of single-walled carbon nanotube; assay type: physicochemical; conditions: in water; estimated from absorbance at 500 nm
Description: Preliminary dispersion was performed by dispersing 1.0 mg of a single-walled carbon nanotube (SWNT) (Carbon Nanotechnology, Inc.) in 0.5 mL of DMSO, and performing ultrasonic irradiation. An amount of 1.0 mL of AQUA β (DAISO Co., Ltd.) in a DMSO solution (2.0 mg/mL) was added and ultrasonic irradiation was further performed for 1 hour. The obtained dispersion was added to 1.5 mL of distilled water. To the dispersion, 35 mL of distilled water was further added and the solution was allowed to stand for one day to renature the AQUA β. It was observed by visual inspection that the solution was uniform at that point. Centrifugation (8,000 rpm, 60 minutes) was performed to recover the complex as a precipitate, the supernatant was removed, and the precipitate was redispersed in distilled water. This procedure was repeated 3 times for removal of uncombined polysaccharides and replacement of the solvent with water. Thus a solution in which the SWNT was dispersed in 5 mL of distilled water was obtained.
From the absorbance at 500 nm (Abs500=0.575), the concentration of the dissolved SWNT is estimated at […]. […] The improvement in the dispersibility seems to be attributed to the fact that AQUA β has a higher proportion of side chains than sizofuran.

[2] = Water solubilization of m-carborane by high speed vibration milling; assay type: physicochemical
Description: m-carborane was mixed with AQUA β (DAISO Co., Ltd.) or sizofuran (SPG) (Mitsui Sugar Co., Ltd.) in the predetermined amounts shown in Table 3 below. The mixture was placed with an agate milling ball in an agate milling jar, and high speed milling was performed with a mixer mill (MM200, Retsch Co., Ltd.) at 25 Hz for 25 minutes. Next, 10,000 parts by weight of water was added to 1 part by weight of the mixture, and the mixture was stirred with a magnetic stirrer at room temperature for two days and further agitated with a vortex mixer for 2 hours. Centrifugation (25° C., 14,000 rpm, 20 minutes) was performed, and the supernatant was filtrated through a 0.45 μm membrane filter. The boron concentration of the filtrate was measured with an ICP atomic emission spectrometer for evaluation of the degree of water solubility.

Concentration of the dissolved SWNT [1] [µg/mL]	Boron concentration relative to solution prepared using sizofuran [2] [times]	Substance
2500	–	sizofiran
–	≥ 3	β-1,3-1,6-D-glucan [AQUA β]
